{"source": "paper PMC6135860", "about": "(Neuropsychopharmacology, 2018)", "key": {"humanized PDE4D mice [1]": {"system": "humanized PDE4D mice", "assay": "Y-maze spontaneous alternation test", "type": "in vivo, mouse", "method": "(§1) The test consists of a single 5 min trial, in which the mouse was allowed to explore all three arms of the Y-maze [31]. Spontaneous alternation (%) was defined as consecutive entries in three different arms, divided by the number of possible alternations (total arm entries minus 2).\n(§2) Y-maze spontaneous alternation test. The Y-maze apparatus made of matt blue Plexiglas had three identical arms (L 40 cm, W 5 cm, H 15 cm) placed at 120° from each other. The test consisted of a single 5 min trial, in which the mouse was allowed to explore all three arms of the Y-maze. The start arm was varied between animals to avoid placement bias. Spontaneous Alternation (%) was defined as consecutive entries in 3 different arms, divided by the number of possible alternations (total arm entries minus 2). Mice with less than 8 arm entries during the 5-min trial were excluded from the analysis."}, "humanized PDE4D mice [2]": {"system": "humanized PDE4D mice", "assay": "Novel object recognition, 24 h inter-trial interval", "type": "in vivo, mouse", "method": "(§3) The novel object recognition test was performed as described elsewhere [32, 33]. Briefly, the task procedure consists of three phases: habituation phase on day 1 for 10 min, training (T1) phase on day 2 for 5 min, and testing (T2) phase on day 3 for 5 min. The duration each animal spent exploring the objects was recorded. Time spent exploring the identical objects in T1 was recorded as a1 and a2; time spent exploring the familiar and the novel objects in T2 was recorded as “a” and “b”, respectively. The following variables were calculated: e1 = a1 + a2, e2 = a + b, the relative discrimination index d2 = (b–a)/e2.\nNovel object recognition. Mice were handled for 3-5 min for 5 days in a row. The novel object recognition test was performed in a Plexiglas open field box (L30 cm, W50 cm, H40 cm) as described elsewhere^64,65. Briefly, the task procedure consists of three phases: habituation, training (T1), and testing (T2). In the habituation phase (day 1), each animal is allowed to freely explore the apparatus for 10 min; then the animal is returned to its home cage. During the training phase (day 2), a single animal is placed in the center of the open field containing two identical objects located on the diagonal of the field, and allowed to explore for 5 min. After a retention interval after T1 of 24 h (long-term recall) or 1 h (scopolamine-impairment model), the animal was subjected to the T2 testing phase for 5 min, during which one familiar object and one novel object were presented. The arena and objects were thoroughly wiped with 70% ethanol after each trial to avoid the presence of any olfactory cues. The animals were considered to be exploring the object when directing their nose to the object at a distance of no more than 2 cm and/or touching or sniffing the object. The duration each animal spent exploring the objects was recorded. Time spent exploring the identical objects in T1 was recorded as a1 and a2; time spent exploring the familiar and the novel objects in T2 was recorded as ‘a’ and ‘b’, respectively. The following variables were calculated: e1 = a1 + a2, e2 = a + b, the relative discrimination index d2 = (b – a)/e2."}, "[3]": {"biological_target": "PDE4 binding sites in wild-type mouse brain membranes", "assay": "[3H]-rolipram radioligand binding to brain membranes", "settings": "for Ki: wild-type", "method": "(§4) Mice were killed by decapitation, and the brains were immediately dissected on ice and homogenized in binding buffer using a Polytron homogenizer (Brinkman Instruments, Westbury, NY). The membrane fraction of the homogenate was obtained by centrifugation at 15,000 × g for 15 min, and resuspension of the pellet in the binding buffer.\n(§5) Mice were killed by decapitation, and the brains were immediately dissected on ice and homogenized in binding buffer (50 mM Tris-HCl, 5 mM MgCl2, pH 7.5) using a Polytron homogenizer (Brinkman Instruments, Westbury, NY). The membrane fraction of the homogenate was obtained by centrifugation at 15,000 g for 15 min, and resuspension of the pellet in the binding buffer^29.\n(§6) At the end of the incubation, reactions were stopped by adding 5 ml of the ice-cold binding buffer and rapid vacuum filtration through glass fiber filters that had been soaked in 0.3% polyethyleneimine. The filters were then washed twice with 5 ml of the ice-cold binding buffer, and discs of filter paper were collected for measurement of radioactivity by liquid scintillation counting."}, "[4]": {"biological_target": "PDE4 binding sites in humanized PDE4D mouse brain membranes", "assay": "[3H]-rolipram radioligand binding to brain membranes", "settings": "for Ki: hPDE4D", "method": "as §4, §5, §6"}, "wild-type mice [5]": {"system": "wild-type mice", "assay": "Y-maze spontaneous alternation test", "type": "in vivo, mouse", "method": "as §1, §2"}, "humanized PDE4D mice [6]": {"system": "humanized PDE4D mice", "settings": "1 mg/kg IP, hPDE4D mice"}, "wild-type mice [7]": {"system": "wild-type mice", "assay": "Ketamine/xylazine anesthesia duration (surrogate of emesis)", "settings": "1 mg/kg IP"}, "wild-type mice [8]": {"system": "wild-type mice", "assay": "Novel object recognition, 24 h inter-trial interval", "type": "in vivo, mouse", "method": "as §3\nNovel object recognition. Mice were handled for 3-5 min for 5 days in a row. The novel object recognition test was performed in a Plexiglas open field box (L30 cm, W50 cm, H40 cm) as described elsewhere^64,65. Briefly, the task procedure consists of three phases: habituation, training (T1), and testing (T2). […] The duration each animal spent exploring the objects was recorded. Time spent exploring the identical objects in T1 was recorded as a1 and a2; time spent exploring the familiar and the novel objects in T2 was recorded as ‘a’ and ‘b’, respectively. The following variables were calculated: e1 = a1 + a2, e2 = a + b, the relative discrimination index d2 = (b – a)/e2."}, "humanized PDE4D mice [9]": {"system": "humanized PDE4D mice", "assay": "Scopolamine-induced memory impairment in novel object recognition, 1 h inter-trial interval", "type": "in vivo, mouse", "settings": "scopolamine 0.1 mg/kg IP 30 min prior to training", "procedure": "The novel object recognition test was performed as described elsewhere. […] The duration each animal spent exploring the objects was recorded. Time spent exploring the identical objects in T1 was recorded as a1 and a2; time spent exploring the familiar and the novel objects in T2 was recorded as “a” and “b”, respectively. The following variables were calculated: e1 = a1 + a2, e2 = a + b, the relative discrimination index d2 = (b–a)/e2.\nFor the scopolamine-induced memory impairment models, a single dose of scopolamine (0.1 mg/kg, IP) was administered 30 min before the training session of the NOR. Animals treated with H-89 or vehicle were implanted with 26-gauge guide cannula unilaterally (AP −0.2 mm from Bregma, ML +1 mm from the midline, DV−2mm from skull surface) and rested for a week before any tests.\nNovel object recognition. Mice were handled for 3-5 min for 5 days in a row. The novel object recognition test was performed in a Plexiglas open field box (L30 cm, W50 cm, H40 cm) as described elsewhere^64,65. Briefly, the task procedure consists of three phases: habituation, training (T1), and testing (T2). In the habituation phase (day 1), each animal is allowed to freely explore the apparatus for 10 min; then the animal is returned to its home cage. During the training phase (day 2), a single animal is placed in the center of the open field containing two identical objects located on the diagonal of the field, and allowed to explore for 5 min. After a retention interval after T1 of 24 h (long-term recall) or 1 h (scopolamine-impairment model), the animal was subjected to the T2 testing phase for 5 min, during which one familiar object and one novel object were presented. […] The duration each animal spent exploring the objects was recorded. Time spent exploring the identical objects in T1 was recorded as a1 and a2; time spent exploring the familiar and the novel objects in T2 was recorded as ‘a’ and ‘b’, respectively. The following variables were calculated: e1 = a1 + a2, e2 = a + b, the relative discrimination index d2 = (b – a)/e2."}, "[10]": {"settings": "H-89 1 µg i.c.v. followed by BPN14770 0.03 mg/kg PO, hPDE4D mice"}, "[11]": {"settings": "inhibition of 2 nM [3H]-rolipram binding, read-out: One-site Ki"}, "[12]": {"settings": "inhibition of [3H]-rolipram binding, read-out: Two-site Ki1"}, "[13]": {"settings": "inhibition of [3H]-rolipram binding, read-out: Two-site Ki2"}}, "note": "Like-named read-outs stand apart in the source and are kept apart here.", "data": [{"smiles": "O=S(=O)(NCCNC/C=C/c1ccc(Br)cc1)c1cccc2cnccc12", "note": "[H-89, reference compound]", "values": [{"measurement": "effect on memory benefit of BPN14770 in Y-maze", "setting": "humanized PDE4D mice [1]; [10]", "result": "significantly antagonized the effect of BPN14770 on memory"}, {"measurement": "effect on memory benefit of BPN14770 in NOR", "setting": "humanized PDE4D mice [2]; [10]", "result": "significantly antagonized the effect of BPN14770 on memory"}]}, {"smiles": "COc1ccc(C2CNC(=O)C2)cc1OC1CCCC1", "note": "(centres unmarked) [Rolipram]", "values": [{"measurement": "MED in Y-maze", "setting": "humanized PDE4D mice [1]; humanized PDE4D mice", "result": 0.1, "unit": "mg/kg IP"}, {"measurement": "Ki", "setting": "[3]; [11]", "result": "1.99 ± 0.11", "unit": "nM"}, {"measurement": "Ki", "setting": "[3]; [12]", "result": "0.75 ± 0.33", "unit": "nM"}, {"measurement": "Ki", "setting": "[3]; [13]", "result": "34.1 ± 26.8", "unit": "nM"}, {"measurement": "Ki", "setting": "[4]; [11]", "result": "1.66 ± 0.07", "unit": "nM"}, {"measurement": "Ki", "setting": "[4]; [12]", "result": "0.39 ± 0.07", "unit": "nM"}, {"measurement": "Ki", "setting": "[4]; [13]", "result": "6.1 ± 0.79", "unit": "nM"}, {"measurement": "MED in NOR", "setting": "humanized PDE4D mice [2]; humanized PDE4D mice, 24 h inter-trial interval", "result": 0.1, "unit": "mg/kg IP"}, {"measurement": "MED in Y-maze", "setting": "wild-type mice [5]", "result": 0.1, "unit": "mg/kg IP"}, {"measurement": "effect on ketamine/xylazine anesthesia duration", "setting": "humanized PDE4D mice [6]", "result": "significantly reduced the anesthesia duration"}, {"measurement": "effect on ketamine/xylazine anesthesia duration", "setting": "wild-type mice [7]", "result": "significantly reduced the anesthesia duration"}, {"measurement": "MED in NOR", "setting": "wild-type mice [8]", "result": 0.1, "unit": "mg/kg IP"}]}, {"smiles": "COc1ccc(C2CNC(=O)C2)cc1OC1CCCC1", "note": "(centres unmarked) [[^3H]-rolipram]", "values": [{"measurement": "Kd", "setting": "[3]; wild-type mouse brain membranes, read-out: Kd of [3H]-rolipram saturation binding", "result": 3.84, "unit": "nM"}, {"measurement": "Kd", "setting": "[4]; humanized PDE4D mouse brain membranes, read-out: Kd of [3H]-rolipram saturation binding", "result": 3.72, "unit": "nM"}]}, {"smiles": "CN1[C@@H]2C[C@@H](OC(=O)[C@H](CO)c3ccccc3)C[C@H]1[C@@H]1O[C@@H]12", "note": "[scopolamine, reference compound]", "values": [{"measurement": "effect on short-term memory in NOR", "setting": "humanized PDE4D mice [9]", "result": "abolished short-term memory formation"}]}]}
